What is called MRT is the average time that molecules of a dose stay in the body.

Where two headings read alike, the source gives them in different places.

The values below come from patent US20230148417A1, “FUSED BICYCLIC DERIVATIVE, PREPARATION METHOD THEREFOR, AND PHARMACEUTICAL USE THEREOF” (Jiangsu Hengrui Pharmaceuticals Co., Ltd., priority 2020, published 2023).

The data set in a line: Pharmacokinetic study in nude mice, intragastric administration. It is filed as in vivo. As to conditions: female, mouse, po, Balb/c nude mice, i.g., plasma; for Vd/F: read-out: Apparent volume of distribution Vz/F; for AUC(0-t): read-out: Area under curve AUC0-t; for CL/F: read-out: Clearance CL/F; for half-life: read-out: Half-life T1/2 (converted); for Cmax: read-out: Plasma concentration Cmax; for MRT: read-out: Residence time MRT. As to the method:
The drug concentration in the plasma of the test animals (Balb/c nude mice) at different time points after intragastric administration (i.g.) of the test compounds was determined by using an LC/MS/MS method. The pharmacokinetic performance of the compounds of the present disclosure in nude mice was studied and their pharmacokinetic profile was evaluated.
18 Balb/c nude mice, female, divided into 2 groups and purchased from Vital River Laboratory Animal Technology Co., Ltd.
A certain amount of compound was weighed out, 99.8% 0.5% methylcellulose was added into the compound, and then 0.2% Tween was added. The mixture was subjected to ultrasonic treatment to obtain a suspension, which was stirred for administration.
The nude mice were subjected to intragastric administration, the administration dose was 50 mg/kg or 100 mg/kg, and the administration volume was 0.2 mL/10 g.
The test compound was administered intragastrically to the nude mice, and 0.1 mL of blood was collected before administration and 0.25 h, 0.5 h, 1.0 h, 2.0 h, 4.0 h, 6.0 h, 8.0 h, 11.0 h and 24.0 h after administration. The blood was placed in an EDTA-K2 anticoagulation tube and centrifuged at 10,000 rpm for 1 min (4° C.), and plasma was separated out within 1 h and then stored at −20° C. for testing. The process from blood sampling to centrifugation was performed under an ice bath.
The content of the test compounds at different concentrations in the nude mice plasma after intragastric administration was determined: 20 μL of nude mouse plasma at each time point after administration was mixed with 50 μL of internal standard solution (camptothecin, 100 ng/mL) and 200 μL of acetonitrile, and the mixture was vortexed for 5 min and centrifuged for 10 min at 3700 rpm. 1 μL of supernatant of the plasma sample was taken for LC/MS/MS analysis.

With `CC(C)NC[C@@H](C(=O)N1C2CCC1CN(c1ncnc3c1C(C)(C)C(=O)N3)C2)c1ccc(Cl)cc1` [Example 2], for the setting “50 mg/kg”, the Vd/F stood at 8.03 L/kg, the AUC(0-t) was found to be 20200 ng·h/mL, the CL/F was 41.2 mL/min/kg and the half-life is 2.3 h. In addition, under “50 mg/kg”, the Cmax was determined as 3000 ng/mL and the MRT was found to be 4.9 h. Besides, where the note is “100 mg/kg”, the Vd/F stood at 16.2 L/kg, the AUC(0-t) stood at 36000 ng·h/mL, the CL/F came out at 45.4 mL/min/kg and the half-life was 4.1 h. For the setting “100 mg/kg”, the Cmax came to 3500 ng/mL and the MRT amounted to 6.7 h.
For `CC(C)NC[C@@H](C(=O)N1[C@@H]2CC[C@H]1CN(c1ncnc3c1[C@H](C)C[C@H]3O)C2)c1ccc(Cl)cc1` [Example 4, (S)-2-(4-chlorophenyl)-1-((1R,5S)-3-((5R,7R)-7-hydroxy-5-methyl-6,7-dihydro-5H-cyclopenta[d]pyrimidin-4-yl)-3,8-diazabicyclo[3.2.1]octan-8-yl)-3-(isopropylamino)propan-1-one], under “50 mg/kg”, the Vd/F was 8.71 L/kg, the AUC(0-t) was 14300 ng·h/mL, the CL/F came out at 57.5 mL/min/kg and the half-life was 1.8 h. In addition, under “50 mg/kg”, the Cmax was determined as 4130 ng/mL and the MRT was determined as 3 h. Moreover, under “100 mg/kg”, the Vd/F was 13.2 L/kg, the AUC(0-t) was 27500 ng·h/mL, the CL/F turned out to be 60.5 mL/min/kg and the half-life was 2.5 h. Moreover, where the note is “100 mg/kg”, the Cmax was 5500 ng/mL and the MRT amounted to 3.7 h.
